Source: patent US6727237B2, “Inhibitors of bacterial NAD synthetase” (priority 1998, dated 2004)
Read-outs that look alike come from different tables or passages of the source.

Target: T1, bacterial NAD synthetase enzyme (Bacillus subtilis, UniProt P08164)
T1 sequence (P08164 2-272 limits assumed): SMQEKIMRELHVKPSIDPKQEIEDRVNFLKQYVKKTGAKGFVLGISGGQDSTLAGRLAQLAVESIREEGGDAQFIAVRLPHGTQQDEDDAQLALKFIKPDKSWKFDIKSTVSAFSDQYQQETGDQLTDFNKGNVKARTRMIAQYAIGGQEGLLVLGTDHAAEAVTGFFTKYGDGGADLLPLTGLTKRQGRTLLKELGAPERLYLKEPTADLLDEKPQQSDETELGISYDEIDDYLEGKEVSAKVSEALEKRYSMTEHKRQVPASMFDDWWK
Experiment: biochemical
Format: biochemical

[1] = compound at 0.2 mM (Table 312A)
[2] = compound at 0.2 mM (Table 312B)

O=[N+]([O-])c1cc([N+](=O)[O-])c2[nH]c(CCCCCCC[n+]3cccc4ccccc43)cc2c1 [Compound 418]
% Inhibition [1]: 5.95%

CC(=O)c1ccc2[nH]c(CCC[n+]3cccc4ccccc43)cc2c1 [Compound 474]
% Inhibition [1]: 2.45%

FC(F)(F)c1ccc2[nH]c(CCCCCCCC[n+]3ccccc3)cc2c1 [Compound 365]
% Inhibition [1]: 16.45%

c1ccc(-c2ccc3[nH]c(CCCCCCC[n+]4ccccc4)cc3c2)cc1 [Compound 328]
% Inhibition (compound at 0.1 mM (Table 314)): 47.85%

CC(=O)c1ccc2[nH]c(CCCCOC(=O)Cc3ccc[n+](C)c3)cc2c1 [Compound 937]
% Inhibition (compound at 0.25 mM): 88.8%

COc1ccc2[nH]c(CCC[n+]3ccc4ccccc4c3)cc2c1 [Compound 588]
% Inhibition [1]: 2.49%

C[N+](C)(C)c1ccc(CC(=O)OCCCCCCCCOc2ccccc2C(=O)Nc2ccccc2)cc1 [Compound 1074]
IC50: 30 µM
inhibition at 200 µM: 91%

FC(F)(F)c1ccc2[nH]c(CCCC[n+]3ccc4ccccc4c3)cc2c1 [Compound 577]
% Inhibition [1]: 20.58%

C[n+]1ccc(C(=O)OCCCCCCCCc2cc3ccc(C(F)(F)F)cc3[nH]2)cc1 [Compound 900]
% Inhibition (compound at 0.25 mM): 84.9%

CN(C)c1ccc(CC(=O)OCCCCCCCCOc2ccccc2N2CCCC2)cc1 [Compound 1046]
% Inhibition [2]: 2%

CC(=O)c1ccc2[nH]c(CCCCCCCOC(=O)c3cccc([N+](C)(C)C)c3)cc2c1 [Compound 878]
IC50: 80 µM
inhibition at 100 µM: 96.4%

FC(F)(F)c1ccc2cc(CCCCC[n+]3ccccc3)[nH]c2c1 [Compound 290]
% Inhibition (compound at 0.1 mM (Table 314)): 12.89%

C[N+](C)(C)c1ccc(CC(=O)OCCCCCCCCOc2ccc(OC(=O)c3ccccc3)cc2)cc1 [Compound 1082]
IC50: 50 µM
inhibition at 200 µM: 81%

O=C(c1ccccc1)c1ccc2[nH]c(CCCCCCCC[n+]3ccc4ccccc4c3)cc2c1 [Compound 575]
% Inhibition [1]: 42.01%

C[N+](C)(C)c1cccc(C(=O)OCCCCc2cc3cc(Oc4ccccc4)ccc3[nH]2)c1 [Compound 871]
% Inhibition (compound at 0.25 mM): 81.9%

C[n+]1cccc(C(=O)OCCCCCCCCc2cc3cc(C(=O)c4ccccc4)ccc3[nH]2)c1 [Compound 927]
% Inhibition (compound at 0.25 mM): 93.1%

COC(=O)c1cc2ccccc2n1CCCCCCCCCOC(=O)c1cccnc1 [Compound 950]
% Inhibition (compound at 0.05 mM): 7.32%

CN(C)c1ccc(CC(=O)OCCCCCn2ccc3cc([N+](=O)[O-])ccc32)cc1 [Compound 849]
% Inhibition (compound at 0.1 mM (Table 314)): 90.92%
IC50 (lead compounds (Table 318A), read-out: IC 50): 70 µM

CN(C)c1ccc(CC(=O)OCCCCCCCCOc2cccc(N3CCOCC3)c2)cc1 [Compound 1045]
% Inhibition [2]: 14%

CC(=O)c1ccc2[nH]c(CCCCCCC[n+]3ccccc3)cc2c1 [Compound 370]
% Inhibition [1]: 41.34%

Fc1cc(F)c2[nH]c(CCCCCCC[n+]3ccc4ccccc4c3)cc2c1 [Compound 520]
% Inhibition [1]: 55.83%

C[N+](C)(C)c1ccc(C(=O)OCCCCCCCc2cc3ccc(C(F)(F)F)cc3[nH]2)cc1 [Compound 884]
IC50: 45 µM

COC(=O)c1cc2ccccc2n1CCCCCCOC(=O)Cc1ccc([N+](C)(C)C)cc1 [Compound 983]
IC50: 25 µM
inhibition at 50 µM: 92.5%

C[n+]1cccc(C(=O)OCCCCCCCCn2ccc3ccccc32)c1 [Compound 969]
% Inhibition [1]: 83.16%

Fc1ccc2[nH]c(CCCCCC[n+]3ccc4ccccc4c3)cc2c1 [Compound 561]
% Inhibition [1]: 24.70%

COc1ccc2c(ccn2CCCCCOC(=O)Cc2ccc([N+](C)(C)C)cc2)c1 [Compound 741]
% Inhibition [1]: 30.47%

C[N+](C)(C)c1cccc(C(=O)OCCCCCCCCc2cc3cc(Oc4ccccc4)ccc3[nH]2)c1 [Compound 873]
% Inhibition (compound at 0.25 mM): 98.0%

CN(C)c1ccc(CC(=O)OCCCCCCCCOc2cccc([N+](=O)[O-])c2)cc1 [Compound 1036]
% Inhibition [2]: 6%

O=[N+]([O-])c1cc([N+](=O)[O-])c2[nH]c(CCCC[n+]3ccccc3)cc2c1 [Compound 307]
% Inhibition [1]: 4.40%

CC(C)c1ccc2[nH]c(CCCCOC(=O)Cc3ccc[n+](C)c3)cc2c1 [Compound 934]
% Inhibition (compound at 0.25 mM): 98.5%

O=C(OCCCCCCCCOc1ccccc1N1CCCC1)c1cccnc1 [Compound 1019]
% Inhibition [2]: 3%

C[n+]1cccc(C(=O)OCCCCCCCCOc2ccccc2C(=O)Nc2ccccc2)c1 [compound 3054]
% Inhibition [2]: 86%

C[N+](C)(C)c1ccc(CC(=O)OCCCCCCCCOc2ccc([N+](=O)[O-])cc2)cc1 [Compound 1073]
% Inhibition [2]: 78%

CC(C)c1ccc2[nH]c(CCCCCCCCOC(=O)c3ccc[n+](C)c3)cc2c1 [Compound 921]
IC50: 25 µM
inhibition at 100 µM: 96.7%

COc1ccc2c(ccn2CCCCOC(=O)c2ccc[n+](C)c2)c1 [Compound 760]
% Inhibition [1]: 2.28%

c1ccc(C(c2ccccc2)(c2ccccc2)c2ccc3[nH]c(CCC[n+]4ccccc4)cc3c2)cc1 [Compound 336]
% Inhibition (compound at 0.1 mM (Table 314)): 18.02%

CC(=O)c1ccc2[nH]c(CCCC[n+]3ccc4ccccc4c3)cc2c1 [Compound 583]
% Inhibition [1]: 31.37%

COC(=O)c1ccc2[nH]c(CCCCCC[n+]3cccc4ccccc43)cc2c1 [Compound 489]
% Inhibition [1]: 5.87%

CC(=O)c1cccc(OCCCCCCCCOC(=O)c2ccc[n+](C)c2)c1 [compound 1069]
% Inhibition [2]: 36%

O=C(O)c1ccc2[nH]c(CCCCCCC[n+]3ccc4ccccc4c3)cc2c1 [Compound 604]
% Inhibition [1]: 34.10%

CC(=O)c1ccc2[nH]c(CCCCCCC[n+]3cccc4ccccc43)cc2c1 [Compound 478]
% Inhibition [1]: 9.76%

c1ccc(C(c2ccccc2)(c2ccccc2)c2ccc3[nH]c(CCCC[n+]4ccccc4)cc3c2)cc1 [Compound 337]
% Inhibition (compound at 0.1 mM (Table 314)): 35.94%

c1ccc2c[n+](CCCCc3cc4ccccc4[nH]3)ccc2c1 [Compound 499]
% Inhibition [1]: 25.59%

COC(=O)c1cc2cc(OCc3ccccc3)ccc2n1CCCCCCCCCOC(=O)Cc1ccc(N(C)C)cc1 [Compound 966]
% Inhibition (compound at 0.05 mM): 8.25%

FC(F)(F)c1ccc2cc(CCCCCCCC[n+]3ccccc3)[nH]c2c1 [Compound 293]
% Inhibition [1]: 87.66%

Fc1cc(F)c2[nH]c(CCCC[n+]3ccc4ccccc4c3)cc2c1 [Compound 517]
% Inhibition [1]: 34.72%

COC(=O)c1ccc2[nH]c(CCCC[n+]3ccccc3)cc2c1 [Compound 379]
% Inhibition [1]: 6.27%

O=C(OCCCCCCCCOc1ccccc1N1CCOCC1)c1cccnc1 [Compound 1020]
% Inhibition [2]: 8%

CC(C)c1ccc2[nH]c(CCCCCCCCOC(=O)c3cc[n+](C)cc3)cc2c1 [Compound 906]
IC50: 25 µM

CC(C)c1ccc2[nH]c(CCCCCCCC[n+]3ccccc3)cc2c1 [Compound 323]
% Inhibition [1]: 28.08%

FC(F)(F)c1ccc2cc(CCCCCCCC[n+]3ccc4ccccc4c3)[nH]c2c1 [Compound 509]
% Inhibition [1]: 78.00%

FC(F)(F)c1ccc2[nH]c(CCC[n+]3ccccc3)cc2c1 [Compound 360]
% Inhibition [1]: 3.46%

CC(C)c1ccc2[nH]c(CCCC[n+]3ccc4ccccc4c3)cc2c1 [Compound 535]
% Inhibition [1]: 12.61%

O=[N+]([O-])c1ccc2[nH]c(CCCCCCCC[n+]3ccc4ccccc4c3)cc2c1 [Compound 551]
% Inhibition [1]: 50.05%

Cc1ccc2[nH]c(CCCC[n+]3ccc4ccccc4c3)cc2c1 [Compound 511]
% Inhibition [1]: 11.02%

O=C(O)c1ccc2[nH]c(CCCC[n+]3ccc4ccccc4c3)cc2c1 [Compound 601]
% Inhibition [1]: 2.22%

C[N+](C)(C)c1cccc(C(=O)OCCCCc2cc3cc(C(=O)c4ccccc4)ccc3[nH]2)c1 [Compound 880]
% Inhibition (compound at 0.25 mM): 96.7%

Cc1ccc2[nH]c(CCC[n+]3cccc4ccccc43)cc2c1 [Compound 402]
% Inhibition (compound at 0.1 mM (Table 314)): 4.71%

CC(C)c1ccc2[nH]c(CCCCC[n+]3ccccc3)cc2c1 [Compound 320]
% Inhibition (compound at 0.1 mM (Table 314)): 44.72%

COC(=O)c1cc2cc(OCc3ccccc3)ccc2n1CCCCCCCCOC(=O)Cc1ccc([N+](C)(C)C)cc1 [Compound 989]
% Inhibition (compound at 0.1 mM (Table 314)): 54.83%

CCCCc1ccc2[nH]c(CCCCCCCC[n+]3ccc4ccccc4c3)cc2c1 [Compound 533]
% Inhibition [1]: 24.68%

O=C(OCCCCCCCc1cc2cc(Oc3ccccc3)ccc2[nH]1)c1cccnc1 [Compound 685]
% Inhibition [1]: 7.81%

CN(C)c1ccc(CC(=O)OCCCCCCCCOc2ccccc2C(N)=O)cc1 [Compound 1031]
IC50: 36.3 µM
inhibition at 200 µM: 23%

COC(=O)c1cc2cc(OCc3ccccc3)ccc2n1CCCCCCCOC(=O)c1ccc(C[N+](C)(C)C)cc1 [Compound 1097]
IC50: 63.7 µM
inhibition at 200 µM: 98%

CN(C)c1ccc(C(=O)OCCCCCCCc2cc3cc(Oc4ccccc4)ccc3[nH]2)cc1 [Compound 619]
% Inhibition [1]: 19.53%

Fc1ccc2[nH]c(CCCCCCCC[n+]3ccc4ccccc4c3)cc2c1 [Compound 563]
% Inhibition [1]: 22.68%

O=[N+]([O-])c1ccc2[nH]c(CCCCCCCC[n+]3ccccc3)cc2c1 [Compound 335]
% Inhibition [1]: 3.28%

C[N+](C)(C)c1cccc(C(=O)OCCCCCCCc2cc3cc(C(=O)c4ccccc4)ccc3[nH]2)c1 [Compound 881]
% Inhibition (compound at 0.1 mM (Table 314)): 90.89%

COC(=O)c1cc2ccccc2n1CCCCCCCOC(=O)c1ccc[n+](C)c1 [Compound 972]
IC50: 40 µM
inhibition at 100 µM: 96.8%

O=[N+]([O-])c1cc([N+](=O)[O-])c2[nH]c(CCCCC[n+]3ccccc3)cc2c1 [Compound 308]
% Inhibition [1]: 33.71%

COC(=O)c1ccc2[nH]c(CCCCCCCC[n+]3ccccc3)cc2c1 [Compound 383]
% Inhibition [1]: 2.76%

C[N+](C)(C)c1ccc(CC(=O)OCCCCCCCCOc2ccccc2C=CC(=O)c2ccccc2)cc1 [Compound 1086]
IC50: 27.5 µM
inhibition at 200 µM: 81%
